In patent US20130150399A1, “INHIBITORS OF THE UNFOLDED PROTEIN RESPONSE AND METHODS FOR THEIR USE” (The Board of Trustees of the Leland Stanford Junior …, priority 2006, published 2013):

Assays:
[1] = Potential toxicities of irestatin 9389, increasing i.p. doses; format: in vivo
Method: Female 4-6 week-old SCID (B6.CB 17) mice supplied by Stanford University Animal Facility were housed in the same facility (American Association of Laboratory Animal Care-approved) with 12 hour light cycles. Food and water were provided ad libitum. All experiments were approved by the institutional care and use committee. The potential toxicities of irestatin 9389 were examined in SCID mice injected i.p. once daily over 4 consecutive days with increasing doses of irestatin 9389 or vehicle control. […] For xenografts, 2×10^6 HT1080 fibrosarcoma cells were resuspended in 50-75 μl PBS and injected s.c. in the dorsal flanks of host mice. When the implanted tumors reached a mean volume of ˜150 mm^3, mice were randomly assigned into different treatment groups. Mice were dosed by i.p. bolus injection with either vehicle (50% DMSO, 20% cremophor EL, 30% ethanol) or irestatin 9389 (50 mg/kg). Tumors (6-8 per group) were measured every 2-4 days with calipers. Tumor volume was calculated using the formula [(W^2×L) 0.52] where W=width and L=length.

[2] = tested on: phospho-JNK1; assay: Western blot of phospho-JNK1 under ER stress, HT1080 cells; format: cell-based, human; conditions: irestatins 2.5 μM, 2 hour preincubation; Tm 4 μg/ml, 1.5 hrs
Method: Cells (2×10^6) were cultured in 10-cm dishes, collected using a cell scraper at 4° C., and lysed by addition of 150 μl cell lysis buffer [50 mM Tris pH 7.4, 150 mM NaCl, 10% glycerol, 0.5% Triton X-100. 0.5% NP-40, 2 mM Na3VO4, 20 mM beta-glycerophosphate, 10 mM NaF, 1 mM DTT, 1 mM PMSF). Lysates were centrifuged for 5 min at 10,000×g, and proteins (˜40 μg) were resolved by SDS-PAGE followed by semi-dry transfer to nitrocellulose membranes. Membranes were blocked in TBS-5% milk supplemented with 0.1% Tween-20. The blots were then probed overnight with relevant antibodies, washed, and incubated for 2 hours with species-specific secondary antibodies conjugated to horseradish peroxidase. After washing in block solution, immunoreactive material was detected by enhanced chemiluminescence (SuperSignal West Dura Extended, Pierce, Inc., Rockville, Ill.).
HT1080 cells were exposed to DMSO vehicle (lane 1), irestatin 9389 (2.5 μM; lane 2) for 16 hours or Tm (5 μg/ml; lane 3) for 8 hours. Following treatments, cells were harvested, lysed, and analyzed by immunoblotting using anti-Grp78 antibody (top) or anti-actin (bottom) as a loading control. […] Cell lysates were analyzed by Western immunoblotting using anti-IRE1α (bottom) or anti-phospho-IRE1α antibodies (top). […] Lysates were analyzed by Western blot using antisera specific for phospho-JNK1 (top) or total JNK1 (bottom). […]

In the case of `Cc1csc(NC(=O)CSc2nc3c(c(C(F)(F)F)c2C#N)CCC3)n1` [Compound 9389], the toxicity ([1]; dosing regimen of 50-60 mg/kg i.p.) is reported as “without apparent toxicity”, the “dosing regimen of 50-60 mg/kg as share of the LD50 value” ([1]; female, SCID (B6.CB 17), mouse, in vivo, 4 days) is reported as 75% and the “phosphorylation of JNK1 during Tm-induced ER stress” value [2] is reported as “failed to block the phosphorylation of JNK1”.
